Assay results: patent publication US9670170B2, “Resorufin derivatives for treatment of oxidative stress disorders” (BioElectron Technology Corporation, priority 2013, dated 2017)
Where two headings read alike, the source gives them in different places.

Tested on: FRDA fibroblasts
Assay: Rescue of BSO-stressed human dermal fibroblasts from Friedreich's Ataxia patients (Calcein AM viability)
Format: cell-based
Method: An initial screen was performed to identify compounds effective for the amelioration of redox disorders. Test samples, 4 reference compounds (idebenone, decylubiquinone, Trolox and alpha-tocopherol), and solvent controls were tested for their ability to rescue FRDA fibroblasts stressed by addition of L-buthionine-(S,R)-sulfoximine (BSO), as described in Jauslin et al., Hum. Mol. Genet. 11(24):3055 (2002), Jauslin et al., FASEB J. 17:1972-4 (2003), and International Patent Application WO 2004/003565. […] This specific BSO-mediated cell death can be prevented by administration of antioxidants or molecules involved in the antioxidant pathway, such as alpha-tocopherol, selenium, or small molecule glutathione peroxidase mimetics. However, antioxidants differ in their potency, i.e. the concentration at which they are able to rescue BSO-stressed FRDA fibroblasts.
MEM (a medium enriched in amino acids and vitamins, catalog no. 1-31F24-I) and Medium 199 (M199, catalog no. 1-21F22-I) with Earle's Balanced Salts, without phenol red, were purchased from Bioconcept. Fetal Calf Serum was obtained from PAA Laboratories. Basic fibroblast growth factor and epidermal growth factor were purchased from PeproTech. Penicillin-streptomycin-glutamine mix, L-buthionine (S,R)-sulfoximine, (+)-alpha-tocopherol, decylubiquinone, and insulin from bovine pancreas were purchased from Sigma. Trolox (6-Hydroxy-2,5,7,8-tetramethylchromane-2-carboxylic acid) was obtained from Fluka. Idebenone was obtained from Chemo Iberica. Calcein AM was purchased from Anaspec. Cell culture medium was made by combining 125 ml M199 EBS, 50 ml Fetal Calf Serum, 100 U/ml penicillin, 100 microgram/ml streptomycin, 2 mM glutamine, 10 microgram/ml insulin, 10 ng/ml EGF, and 10 ng/ml bFGF; MEM EBS was added to make the volume up to 500 ml. A 10 mM BSO solution was prepared by dissolving 444 mg BSO in 200 ml of medium (Invitrogen, Carlsbad, Ca.) with subsequent filter-sterilization. During the course of the experiments, this solution was stored at +4° C. The cells were obtained from the Coriell Cell Repositories (Camden, N.J.; repository number GM04078) and grown in 10 cm tissue culture plates. Every third day, they were split at a 1:3 ratio.
The test samples were supplied in 1.5 ml glass vials. The compounds were diluted with DMSO, ethanol or PBS to result in a 5 mM stock solution. Once dissolved, they were stored at −20° C. Reference antioxidants (idebenone, decylubiquinone, alpha-tocopherol and Trolox) were dissolved in DMSO.
Test samples were screened according to the following protocol:
A culture with FRDA fibroblasts was started from a 1 ml vial with approximately 500,000 cells stored in liquid nitrogen. Cells were propagated in 10 cm cell culture dishes by splitting every third day in a ratio of 1:3 until nine plates were available. Once confluent, fibroblasts were harvested. For 54 micro titer plates (96 well-MTP) a total of 14.3 million cells (passage eight) were re-suspended in 480 ml medium, corresponding to 100 microliters medium with 3,000 cells/well. The remaining cells were distributed in 10 cm cell culture plates (500,000 cells/plate) for propagation. The plates were incubated overnight at 37° C. in a atmosphere with 95% humidity and 5% CO2 to allow attachment of the cells to the culture plate.
10% DMSO (242.5 microliters) was added to a well of the microtiter plate. The test compounds were unfrozen, and 7.5 microliters of a 5 mM stock solution was dissolved in the well containing 242.5 microliters of 10% DMSO, resulting in a 150 micromolar master solution. Serial dilutions from the master solution were made. The period between the single dilution steps was kept as short as possible (generally less than 30 seconds). At least 4 hours after attachment into MTP, cells were then treated with the various compound dilutions.
Plates were kept overnight in the cell culture incubator. […]

[1] = Homo sapiens, compounds of the invention, FRDA fibroblasts (GM04078), 1 mM BSO, 48 h, tested three times, read-out: Ec50 Average
[2] = Homo sapiens, GM04078, 48 h, read-out: Ec50 Average

Row | Structure (SMILES) | EC50 [1] | other results
1 | Cc1c2nc3ccc(C(=O)NCCN4CCOCC4)cc3oc-2c(C)c(=O)c1C [Compound 8] | 3 nM | –
2 | O=c1ccc2nc3ccc(OCc4ccccc4)cc3oc-2c1 [Compound 1] | – | EC50 [2]: 1 nM
3 | Cc1c2nc3ccc(C(=O)NCCCO)cc3oc-2c(C)c(=O)c1C [Compound 10] | 5 nM | –
4 | COc1ccc2nc3c(OC)c(OC)c(=O)c(C)c-3oc2c1 [Compound 13] | 12 nM | –
5 | COC(=O)c1ccc2nc3c(C)c(C)c(=O)c(C)c-3oc2c1 [Compound 21] | 50 nM | –
6 | COCCNC(=O)c1ccc2nc3c(C)c(C)c(=O)c(C)c-3oc2c1 [Compound 12] | 6 nM | –
7 | COCCN(C)C(=O)c1ccc2nc3c(C)c(C)c(=O)c(C)c-3oc2c1 [Compound 7] | 2 nM | –
8 | Cc1c2nc3cc(C(F)(F)F)ccc3oc-2c(C)c(=O)c1C [Compound 22] | 54 nM | –
9 | COCCOCCOCCOCCNC(=O)c1ccc2nc3c(C)c(C)c(=O)c(C)c-3oc2c1 [Compound 15] | 17 nM | –
10 | Cc1c(C)c2c(c(C)c1O)CC[C@@](C)(CCC[C@H](C)CCC[C@H](C)CCCC(C)C)O2 [alpha-tocopherol, reference compound] | – | EC50 (control compounds, FRDA fibroblasts (GM04078), 1 mM BSO, 48 h, average of three values, read-out: EC50 Average): 300 nM; EC50 (control compounds, FRDA fibroblasts (GM04078), 1 mM BSO, 48 h, first of three experiments, read-out: EC50 Value 1): 400 nM; EC50 (control compounds, FRDA fibroblasts (GM04078), 1 mM BSO, 48 h, second of three experiments, read-out: EC50 Value 2): 150 nM; EC50 (control compounds, FRDA fibroblasts (GM04078), 1 mM BSO, 48 h, third of three experiments, read-out: EC50 Value 3): 350 nM
11 | COc1ccc2nc3ccc(=O)cc-3oc2c1 [Compound 3] | – | EC50 [2]: 1 nM
12 | Cc1cc2oc3c(C)c(=O)c(C)c(C)c-3nc2cc1S(C)(=O)=O [Compound 23] | 234 nM | –
13 | O=c1ccc2nc3ccc(O)cc3oc-2c1 [Compound 4] | – | EC50 [2]: 84 nM
14 | Cc1ccc2nc3c(C)c(C)c(=O)c(C)c-3oc2c1C [Compound 9] | 4 nM | –
15 | Cc1cc(C)c2nc3c(C)c(C)c(=O)c(C)c-3oc2c1 [Compound 20] | 26 nM | –
16 | O=c1ccc2nc3ccc(O[C@@H]4O[C@H](CO)[C@H](O)[C@H](O)[C@H]4O)cc3oc-2c1 [Compound 14] | 16 nM | –
17 | Cc1ccc2nc3c(C)c(C)c(=O)c(C)c-3oc2c1 [Compound 11] | 5 nM | –
18 | Cc1c2nc3ccc(C(F)(F)F)cc3oc-2c(C)c(=O)c1C [Compound 17] | 23 nM | –
19 | CCOc1ccc2nc3ccc(=O)cc-3oc2c1 [Compound 5] | – | EC50 [2]: 0.8 nM
20 | Cc1c2nc3ccc(C(=O)NCCc4ccccc4)cc3oc-2c(C)c(=O)c1C [Compound 19] | 25 nM | –
21 | COc1c2nc3ccc(C)cc3oc-2c(C)c(=O)c1OC [Compound 6] | 2 nM | –
